Legend:
[1] = biological target: T1, Citron Rho-interacting kinase (Homo sapiens, UniProt O14578); test: NanoLuc NanoBRET (CITKD)
[2] = biological target: T1, Citron Rho-interacting kinase; test: NanoLuc NanoBRET (CIT)

T1 sequence (O14578 whole entry): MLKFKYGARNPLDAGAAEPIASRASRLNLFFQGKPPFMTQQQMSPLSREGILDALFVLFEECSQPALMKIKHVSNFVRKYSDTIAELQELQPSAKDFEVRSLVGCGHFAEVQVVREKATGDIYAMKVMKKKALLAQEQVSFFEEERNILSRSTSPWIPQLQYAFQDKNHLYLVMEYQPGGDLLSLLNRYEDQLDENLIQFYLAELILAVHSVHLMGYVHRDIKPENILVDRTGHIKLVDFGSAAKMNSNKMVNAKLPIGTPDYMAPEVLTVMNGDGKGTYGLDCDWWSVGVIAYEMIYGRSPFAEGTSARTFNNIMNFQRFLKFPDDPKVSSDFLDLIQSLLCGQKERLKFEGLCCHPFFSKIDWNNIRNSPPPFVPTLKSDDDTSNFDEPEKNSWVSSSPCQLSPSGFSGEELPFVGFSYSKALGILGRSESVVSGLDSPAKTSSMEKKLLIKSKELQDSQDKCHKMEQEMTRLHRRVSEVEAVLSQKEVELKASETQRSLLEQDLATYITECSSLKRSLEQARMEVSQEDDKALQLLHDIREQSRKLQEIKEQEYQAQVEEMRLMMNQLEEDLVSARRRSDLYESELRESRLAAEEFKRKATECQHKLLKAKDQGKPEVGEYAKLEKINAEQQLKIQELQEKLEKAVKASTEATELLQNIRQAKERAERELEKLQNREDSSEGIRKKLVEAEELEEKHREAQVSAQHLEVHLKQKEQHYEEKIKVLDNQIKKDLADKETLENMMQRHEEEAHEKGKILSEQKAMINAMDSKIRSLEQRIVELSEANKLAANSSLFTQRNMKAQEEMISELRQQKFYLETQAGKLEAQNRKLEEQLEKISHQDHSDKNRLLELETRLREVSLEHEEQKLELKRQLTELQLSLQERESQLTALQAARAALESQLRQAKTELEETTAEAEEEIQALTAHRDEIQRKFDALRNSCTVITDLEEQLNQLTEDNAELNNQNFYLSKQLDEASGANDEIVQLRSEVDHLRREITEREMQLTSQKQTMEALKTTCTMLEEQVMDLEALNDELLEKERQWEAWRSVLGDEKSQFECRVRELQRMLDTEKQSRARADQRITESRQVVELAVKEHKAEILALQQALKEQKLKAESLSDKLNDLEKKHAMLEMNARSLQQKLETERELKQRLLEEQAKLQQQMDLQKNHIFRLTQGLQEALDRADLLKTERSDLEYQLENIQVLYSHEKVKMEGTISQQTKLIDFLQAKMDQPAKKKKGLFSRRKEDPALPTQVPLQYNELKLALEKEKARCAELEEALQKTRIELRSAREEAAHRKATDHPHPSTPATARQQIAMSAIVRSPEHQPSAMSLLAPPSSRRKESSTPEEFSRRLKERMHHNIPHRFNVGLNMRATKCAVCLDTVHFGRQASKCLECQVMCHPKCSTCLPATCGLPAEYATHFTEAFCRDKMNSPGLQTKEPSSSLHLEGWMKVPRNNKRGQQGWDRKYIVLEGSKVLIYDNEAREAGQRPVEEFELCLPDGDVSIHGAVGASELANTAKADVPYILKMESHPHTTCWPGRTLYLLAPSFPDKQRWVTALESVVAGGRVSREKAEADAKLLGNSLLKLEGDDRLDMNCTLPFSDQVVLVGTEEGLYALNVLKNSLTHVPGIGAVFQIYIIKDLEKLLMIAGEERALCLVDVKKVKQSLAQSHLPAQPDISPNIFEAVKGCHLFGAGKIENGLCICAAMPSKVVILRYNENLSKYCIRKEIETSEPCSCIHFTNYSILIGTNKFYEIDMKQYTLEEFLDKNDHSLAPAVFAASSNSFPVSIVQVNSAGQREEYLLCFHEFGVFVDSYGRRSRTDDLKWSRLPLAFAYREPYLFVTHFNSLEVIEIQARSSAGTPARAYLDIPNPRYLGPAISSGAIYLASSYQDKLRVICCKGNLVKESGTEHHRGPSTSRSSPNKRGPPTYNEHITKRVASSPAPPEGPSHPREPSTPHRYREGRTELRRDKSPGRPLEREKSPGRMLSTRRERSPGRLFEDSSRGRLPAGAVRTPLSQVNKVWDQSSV

Kd [1]: no binding | Kd [2]: no binding
SMILES: Cc1cc2c(-c3ccc(NC(=O)[C@H](N)CC(C)(C)C)cc3C)cncc2[nH]1

Reference: ChEMBL document CHEMBL5723584 (2023)
